The test system of assay [1] is patients with moderate TBI. Briefly: clinical trial of ODSH infusion in moderate TBI. It counts as in vivo. The conditions noted are these: ODSH infusion added to best supportive care. Here is the method: FIG. 4 outlines the phase II clinical trial of ODSH for treating TBI.
A clinical trial is conducted.
Enrollment criteria are (i) moderate TBI: Glasgow Coma Score (GCS) of 9-12, or if patient is intubated, GCS 7-9; (ii) cerebral contusions on CT scan. Patients are randomized into 2 groups. Both groups receive best supportive care. This is an active treatment control. One group additionally receives infusion of ODSH.

Assay [2] in a line: USP anticoagulant assay. It counts as biochemical.
The test system of assay [3] is middle cerebral artery occlusion animal model. Briefly: secondary brain injury after middle cerebral artery occlusion in an animal model. Format: in vivo.
For assay [4] the following is noted: comparator, Rao et al. 2010; cited from earlier work.

“Also recorded” adds a separate entry of the source.

The values that follow come from US20170106011A1, “METHODS OF TREATING TRAUMATIC BRAIN INJURY AND SEQUELAE” (Cantex Pharmaceuticals, Inc., priority 2015, published 2017).

With 2-O, 3-O-desulfated heparin [ODSH], the inflammatory biomarkers entry in assay [1] was “reduces”. Further, in assay [1] (at 6 months), the “Glasgow Outcome Scale scores” value was “improves”. Besides, in assay [1] (six months post-injury), the “Montreal Cognitive Assessment (MoCA) score” value is “improves”. In assay [2], the “anticoagulant activity in the USP anticoagulant assay” value is “less than 9 U/mg” and the “anticoagulant activity in the USP anticoagulant assay (e.g. value)” value worked out at 7±0.3 U. Also, the secondary brain injury entry in assay [3] is “reduction of secondary brain injury; also recorded: reduced secondary brain injury”.

In the case of unfractionated heparin, in assay [4], the “activity in the USP anticoagulant assay” value is 165-190 U/mg.
